Laboratory results from patent publication US11453683B1, “KRas G12D inhibitors” (Mirati Therapeutics, Inc., priority 2019, dated 2022).

Each molecule was assayed on KRas G12D-mediated phosphorylation of ERK (assay: Inhibition of KRas G12D-mediated phosphorylation of ERK in AGS cells). Conditions: Homo sapiens; AGS cells expressing G12D, 3 hours, phospho-ERK normalized to GAPDH.
Type: cell-based
Procedure: Cells were plated in tissue culture treated 96 well plates at a density of 40,000 cells/well and allowed to attach for 12-14 hours. Diluted compounds were then added in a final concentration of 0.5% DMSO. After 3 hours, the medium was removed, 150 μL of 4.0% formaldehyde was added and the plates incubated at room temperature for 20 minutes. The plates were washed with PBS, and permeabilized with 150 μL of ice cold 100% methanol for 10 minutes. Non-specific antibody binding to the plates was blocked using 100 μL Licor blocking buffer (Li-Cor Biotechnology, Lincoln Nebr.) for 1 hour at room temperature.
The amount of phospho-ERK was determined using an antibody specific for the phosphorylated form of ERK and compared to the amount of GAPDH. Primary antibodies used for the detection were added as follows: Phospho-ERK (Cell Signaling cs-9101) diluted 1:500 and GAPDH (Millipore MAB374) diluted 1:5000 in Licor block+0.05% Tween 20. The plates were incubated for 2 hours at room temperature. The plates were washed with PBS+0.05% Tween 20.
Secondary antibodies used to visualize primary antibodies were added as follows: Anti-rabbit-680 diluted 1:1000 and Anti-mouse-800 diluted 1:1000 both in Licor block+0.05% TweeN2O, and were incubated for 1 hour at room temperature. The plates were washed with PBS+0.05% Tween 20. A 100 μL aliquot of PBS was added to each well and the plates were read on a Li-Cor Odyssey CLX plate reader.
The phospho-ERK (Thr202/Tyr204 signal was normalized to the GAPDH signal for each well and percent of DMSO control values were calculated. IC50 values were generated using a 4-parameter fit of the dose response curve

Q: For `OCC(CO)COc1nc(N2C[C@H]3CC[C@@H](C2)N3)c2cnc(-c3cccc4cccc(Cl)c34)c(F)c2n1` [Example 35, 2-(((4-((1R,5S)-3,8-diazabicyclo[3.2.1]octan-3-yl)-7-(8-chloronaphthalen-1-yl)-8-fluoropyrido[4,3-d]pyrimidin-2-yl)oxy)methyl)propane-1,3-diol], which IC50 is on record?
A: 11.3 µM

Q: How did the IC50 turn out when `Oc1cc(-c2ncc3c(N4C[C@H]5CC[C@@H](C4)N5)nc(OCC45CCCN4CCC5)nc3c2F)c2c(Cl)cccc2c1` [Example 36, 4-(4-((1R,5S)-3,8-diazabicyclo[3.2.1]octan-3-yl)-8-fluoro-2-((tetrahydro-1H-pyrrolizin-7a(5H)-yl)methoxy)pyrido[4,3-d]pyrimidin-7-yl)-5-chloronaphthalen-2-ol] was run?
A: 0.108 µM

Q: With `Oc1cc(-c2ncc3c(N4C[C@H]5CC[C@@H](C4)N5)nc(OC[C@@H]4CC5CCN4C5)nc3c2F)c2ccccc2c1` [Example 40, 4-(2-(((2S)-1-azabicyclo[2.2.1]heptan-2-yl)methoxy)-4-((1R,5S)-3,8-diazabicyclo[3.2.1]octan-3-yl)-8-fluoropyrido[4,3-d]pyrimidin-7-yl)naphthalen-2-ol] as the molecule, how does the IC50 read?
A: 4.24 µM

Q: Which IC50 does the source give for `COCCCN1CCC(Oc2nc(N3C[C@H]4CC[C@@H](C3)N4)c3cnc(-c4cc(O)cc5ccccc45)c(F)c3n2)CC1` [Example 41, 4-(4-((1R,5S)-3,8-diazabicyclo[3.2.1]octan-3-yl)-8-fluoro-2-((1-(3-methoxypropyl)piperidin-4-yl)oxy)pyrido[4,3-d]pyrimidin-7-yl)naphthalen-2-ol] here?
A: 6.65 µM

Q: `CO[C@@H]1C[C@@H](COc2nc(N3C[C@H]4CC[C@@H](C3)N4)c3cnc(-c4cc(O)cc5ccccc45)c(F)c3n2)N(C)C1` [Example 42, 4-(4-((1R,5S)-3,8-diazabicyclo[3.2.1]octan-3-yl)-8-fluoro-2-(((2S,4R)-4-methoxy-1-methylpyrrolidin-2-yl)methoxy)pyrido[4,3-d]pyrimidin-7-yl)naphthalen-2-ol] was tested. Which IC50 did it give?
A: 0.638 µM

Q: With `CCO[C@@H]1C[C@@H](COc2nc(N3C[C@H]4CC[C@@H](C3)N4)c3cnc(-c4cccc5cccc(Cl)c45)c(F)c3n2)N(C)C1` [Example 43, 4-((1R,5S)-3,8-diazabicyclo[3.2.1]octan-3-yl)-7-(8-chloronaphthalen-1-yl)-2-(((2S,4R)-4-ethoxy-1-methylpyrrolidin-2-yl)methoxy)-8-fluoropyrido[4,3-d]pyrimidine] as the molecule, how does the IC50 read?
A: 6.2 µM

Q: Which IC50 does the source give for `CN1CCC[C@H]1COc1nc(N2C[C@H]3CC[C@@H](C2)N3)c2cnc(-c3cccc4ccc(F)c(Cl)c34)c(F)c2n1` [Example 44, 4-((1R,5S)-3,8-diazabicyclo[3.2.1]octan-3-yl)-7-(8-chloro-7-fluoronaphthalen-1-yl)-8-fluoro-2-(((S)-1-methylpyrrolidin-2-yl)methoxy)pyrido[4,3-d]pyrimidine] here?
A: 2.29 µM

Q: How did the IC50 turn out when `Fc1c(-c2cccc3cccc(Cl)c23)ncc2c(N3C[C@H]4CC[C@@H](C3)N4)nc(OCC34CCCN3CCC4)nc12` [Example 45, 4-((1R,5S)-3,8-diazabicyclo[3.2.1]octan-3-yl)-7-(8-chloronaphthalen-1-yl)-8-fluoro-2-((tetrahydro-1H-pyrrolizin-7a(5H)-yl)methoxy)pyrido[4,3-d]pyrimidine] was run?
A: 0.84 µM

Q: `CCCOc1nc(N2C[C@H]3CC[C@@H](C2)N3)c2cnc(-c3cc(O)cc4ccccc34)c(F)c2n1` [Example 47, 4-(4-((1R,5S)-3,8-diazabicyclo[3.2.1]octan-3-yl)-8-fluoro-2-propoxypyrido[4,3-d]pyrimidin-7-yl)naphthalen-2-ol] was tested. Which IC50 did it give?
A: 4.45 µM

Q: How did the IC50 turn out when `Oc1cc(-c2ncc3c(N4C[C@H]5CC[C@@H](C4)N5)nc(OCC(F)(F)F)nc3c2F)c2ccccc2c1` [Example 48, 4-(4-((1R,5S)-3,8-diazabicyclo[3.2.1]octan-3-yl)-8-fluoro-2-(2,2,2-trifluoroethoxy)pyrido[4,3-d]pyrimidin-7-yl)naphthalen-2-ol] was run?
A: 4.88 µM

Q: With `Oc1cc(-c2ncc3c(N4C[C@H]5CC[C@@H](C4)N5)nc(OC[C@@H]4CCCN4)nc3c2F)c2ccccc2c1` [Example 50, 4-(4-((1R,5S)-3,8-diazabicyclo[3.2.1]octan-3-yl)-8-fluoro-2-(((S)-pyrrolidin-2-yl)methoxy)pyrido[4,3-d]pyrimidin-7-yl)naphthalen-2-ol] as the molecule, how does the IC50 read?
A: 15.4 µM

Q: Which IC50 does the source give for `Oc1cc(-c2ncc3c(N4C[C@H]5CC[C@@H](C4)N5)nc(OCC4(C(F)(F)F)CC4)nc3c2F)c2ccccc2c1` [Example 51, 4-(4-((1R,5S)-3,8-diazabicyclo[3.2.1]octan-3-yl)-8-fluoro-2-((1-(trifluoromethyl)cyclopropyl)methoxy)pyrido[4,3-d]pyrimidin-7-yl)naphthalen-2-ol] here?
A: 12.1 µM

Q: `Oc1cc(-c2ncc3c(N4C[C@H]5CC[C@@H](C4)N5)nc(OCC(F)(F)C(F)F)nc3c2F)c2ccccc2c1` [Example 52, 4-(4-((1R,5S)-3,8-diazabicyclo[3.2.1]octan-3-yl)-8-fluoro-2-(2,2,3,3-tetrafluoropropoxy)pyrido[4,3-d]pyrimidin-7-yl)naphthalen-2-ol] was tested. Which IC50 did it give?
A: 8.38 µM

Q: With `Fc1c(-c2cccc3cccc(Cl)c23)ncc2c(N3C[C@H]4CC[C@@H](C3)N4)nc(OCC34CCCCN3CCC4)nc12` (stereo partly drawn) [Example 54, 4-((1R,5S)-3,8-diazabicyclo[3.2.1]octan-3-yl)-7-(8-chloronaphthalen-1-yl)-8-fluoro-2-((hexahydroindolizin-8a(1H)-yl)methoxy)pyrido[4,3-d]pyrimidine] as the molecule, how does the IC50 read?
A: > 16.7 µM

Q: How did the IC50 turn out when `CN1CCC[C@H]1COc1nc(N2C[C@H]3CC[C@@H](C2)N3)c2cnc(-c3cc(O)cc4cccc(Cl)c34)c(F)c2n1` [Example 63, 4-(4-((1R,5S)-3,8-diazabicyclo[3.2.1]octan-3-yl)-8-fluoro-2-(((S)-1-methylpyrrolidin-2-yl)methoxy)pyrido[4,3-d]pyrimidin-7-yl)-5-chloronaphthalen-2-ol] was run?
A: 0.187 µM

Q: With `CC(C)(C)[Si](C)(C)OCC1CCC2(COc3nc(N4C[C@H]5CC[C@@H](C4)N5)c4cnc(-c5cccc6cccc(Cl)c56)c(F)c4n3)CCCN12` (stereo partly drawn) [Example 64, 4-((1R,5S)-3,8-diazabicyclo[3.2.1]octan-3-yl)-2-((3-(((tert-butyldimethylsilyl)oxy)methyl)tetrahydro-1H-pyrrolizin-7a(5H)-yl)methoxy)-7-(8-chloronaphthalen-1-yl)-8-fluoropyrido[4,3-d]pyrimidine] as the molecule, how does the IC50 read?
A: 3.97 µM

Q: Which IC50 does the source give for `COCCCOc1nc(N2C[C@H]3CC[C@@H](C2)N3)c2cnc(-c3cc(O)cc4ccccc34)c(F)c2n1` [Example 68, 4-(4-((1R,5S)-3,8-diazabicyclo[3.2.1]octan-3-yl)-8-fluoro-2-(3-methoxypropoxy)pyrido[4,3-d]pyrimidin-7-yl)naphthalen-2-ol] here?
A: 7.53 µM

Q: For `OCCOc1nc(N2C[C@H]3CC[C@@H](C2)N3)c2cnc(-c3cc(O)cc4ccccc34)c(F)c2n1` [Example 69, 4-(4-((1R,5S)-3,8-diazabicyclo[3.2.1]octan-3-yl)-8-fluoro-2-(2-hydroxyethoxy)pyrido[4,3-d]pyrimidin-7-yl)naphthalen-2-ol], which IC50 is on record?
A: > 16.7 µM

Q: With `O=S1(=O)CCC(Oc2nc(N3C[C@H]4CC[C@@H](C3)N4)c3cnc(-c4cc(O)cc5ccccc45)c(F)c3n2)CC1` [Example 71, 4-((4-((1R,5S)-3,8-diazabicyclo[3.2.1]octan-3-yl)-8-fluoro-7-(3-hydroxynaphthalen-1-yl)pyrido[4,3-d]pyrimidin-2-yl)oxy)tetrahydro-2H-thiopyran 1,1-dioxide] as the molecule, how does the IC50 read?
A: > 16.7 µM

Q: How did the IC50 turn out when `Oc1cc(-c2ncc3c(N4C[C@H]5CC[C@@H](C4)N5)nc(OC4CCOCC4)nc3c2F)c2ccccc2c1` [Example 72, 4-(4-((1R,5S)-3,8-diazabicyclo[3.2.1]octan-3-yl)-8-fluoro-2-((tetrahydro-2H-pyran-4-yl)oxy)pyrido[4,3-d]pyrimidin-7-yl)naphthalen-2-ol] was run?
A: 7.26 µM

Q: For `Oc1cc(-c2ncc3c(N4C[C@H]5CC[C@@H](C4)N5)nc(OCC4CCCC4)nc3c2F)c2ccccc2c1` [Example 73, 4-(4-((1R,5S)-3,8-diazabicyclo[3.2.1]octan-3-yl)-2-(cyclopentylmethoxy)-8-fluoropyrido[4,3-d]pyrimidin-7-yl)naphthalen-2-ol], which IC50 is on record?
A: > 5.56 µM

Q: With `Oc1cc(-c2ncc3c(N4C[C@H]5CC[C@@H](C4)N5)nc(N4CC5(CCOCC5)C4)nc3c2F)c2ccccc2c1` [Example 74, 4-(4-((1R,5S)-3,8-diazabicyclo[3.2.1]octan-3-yl)-8-fluoro-2-(7-oxa-2-azaspiro[3.5]nonan-2-yl)pyrido[4,3-d]pyrimidin-7-yl)naphthalen-2-ol] as the molecule, how does the IC50 read?
A: 5.47 µM

Q: How did the IC50 turn out when `OCCCOc1nc(N2C[C@H]3CC[C@@H](C2)N3)c2cnc(-c3cc(O)cc4ccccc34)c(F)c2n1` [Example 75, 4-(4-((1R,5S)-3,8-diazabicyclo[3.2.1]octan-3-yl)-8-fluoro-2-(3-hydroxypropoxy)pyrido[4,3-d]pyrimidin-7-yl)naphthalen-2-ol] was run?
A: > 16.7 µM

Q: For `Oc1cc(-c2ncc3c(N4C[C@H]5CC[C@@H](C4)N5)nc(N4CC5(CCOC5)C4)nc3c2F)c2ccccc2c1` [Example 76, 4-(4-((1R,5S)-3,8-diazabicyclo[3.2.1]octan-3-yl)-8-fluoro-2-(6-oxa-2-azaspiro[3.4]octan-2-yl)pyrido[4,3-d]pyrimidin-7-yl)naphthalen-2-ol], which IC50 is on record?
A: 7.41 µM
